The text below walks through data of patent EP0241291B1, “Aryl-substituted naphthyridine and pyridopyrazine derivatives” (SCHERING CORPORATION, priority 1986, dated 1987).

Molecules are shown by their SMILES.

Experiment [1] deals with Reversed Passive Arthus Response. As to the kind of experiment: Reversed Passive Arthus Response (RPAR), paw volume. The experiment is classed as in vivo, Male Lewis inbred albino rats. Particulars: 25 mg/kg p.o. once daily for 3 days, rats; for Percent Inhibition vs. Control at 2 hrs.: paw volume 2 hours post-challenge; for Percent Inhibition vs. Control at 4 hrs.: paw volume 4 hours post-challenge. An excerpt:
The compounds of this invention are also useful for the treatment of inflammation. Thus, they are useful in the treatment of arthritis, bursitis, tendonitis, gout and other physical conditions characterized by inflammation.
Reversed Passive Arthus Response (RPAR) Animals, Materials and Methods
Male Lewis inbred albino rats weighing 180-200 grams obtained from Charles River Breeding Laboratories are used in these experiments. The rats are housed 3 animals/cage and food and water are allowed ad libitum. The animals are numbered 1-3 in each cage and color marked for identification purposes.
All reagents and drugs are prepared just prior to the study. Crystallized and lyophilized bovine serum albumin (BSA), available from Sigma Chemical Company, is solubilized without shaking in cold, sterile, pyrogenfree saline (10 mg/ml). Lyophilized anti-bovine serum albumin (IgG fraction), obtained from Cappel Laboratories, is suspended in sterile distilled water and diluted with cold, pyrogen-free saline (PFS) just prior to use. The final concentration of anti-bovine serum albumin is 0.5. mg/ml of PFS. Both BSA and anti-BSA solutions are iced during use. Drugs are suspended or solubilized in an aqueous solution of methyl cellulose (MC) with an homogenizer just prior to administration.
Groups of animals (6/group) are dosed with drug in MC by gavage once daily for 3 days. The last dose is administered one hour prior to sensitization with BSA. Controls are given MC alone and a drug-standard is usually included in each assay for verification purposes. Drugs are prepared and diluted so as to provide a dose for a 200 gram animal which is equivalent to the mg/kg dose for each experiment. Thus each rat receives an oral dose in a volume of approximately 2.0 cc. One hour after the last dose the animals are lightly anesthetized with ether and "sensitized" by injection of 0.2 ml of PFS containing 1.0 mg of BSA into the penile vein. One hour later, the animals are "challenged" in the right rear paw with subplantar injections of […] PFS containing 0.1 mg of anti-BSA. Immediately after the subplantar injection, the right paw is dipped (up to the lateral maleolus) into the mercury well of a plethysmograph. The volume of mercury displaced is converted to weight and recorded. This value is considered to be the control reading for the animal. Paw volumes are subsequently recorded with a plethysmograph during the development of the inflammation at 2 and 4 hours post-challenge.
Results are expressed by the change in paw volume (Δ paw volume) from the control reading for each animal to that recorded 2 and 4 hours post-challenge. All drug treated groups are compared to the MC control for significant differences with an analysis of variance. Differences from control in drug-treated groups are expressed as percent change from control in Table II.

Experiment [2] deals with anaphylactic bronchospasm in sensitized guinea pigs. Put plainly: Inhibition of anaphylactic bronchospasm in sensitized guinea pigs with antigen-induced bronchoconstriction. The experiment is classed as in vivo, male Hartley guinea pigs. The conditions noted are these: Cavia porcellus, po; for ED50: 2 hours before challenge with ovalbumin, sensitized guinea pigs, read-out: ED50 (p.o.)-in anaphylactic bronchospasm test. How it is done:
The compounds of this invention may be employed as anti-allergy agents in the treatment of, for example, asthma, allergic or seasonal rhinitis, and/or chronic bronchitis. The anti-allergy method of this invention is identified by tests which measure a compound's inhibition of anaphylactic bronchospasm in sensitized guinea pigs having antigen induced broncho-constriction.
In one such test procedure, male Hartley guinea pigs (250-300 g) are sensitized with 5 mg ovalbumin injected i.p. and 5 mg injected s.c. in 1 ml saline on day 1 and 5 mg ovalbumin injected i.p. on day 4. The sensitized animals are used 3-4 weeks later at which time they weigh 450-500 g.
The sensitized guinea pigs are fasted overnight and the following morning are anesthetized with 0.9 ml/kg i.p. of dialurethane (0.1 g/ml diallybarbituric acid, 0.4 g/ml ethylurea and 0.4 g/ml urethane). The trachea are cannulated and the animals are ventilated by a Harvard® rodent respirator at 50 strokes/minute with a stroke volume of 5 ml. A side arm to the tracheal cannula is connected to a pressure transducer (Harvard) to obtain a continuous measure of intratracheal pressure which is recorded on a polygraph (Harvard). The jugular vein is cannulated for the i.v. administration of substances. The animals are challenged with antigen (0.5% ovalbumin) as an aerosol generated from a DeVilbiss® Model 65 ultrasonic nebulizer and delivered through the tracheal cannula for 30 seconds. Bronchoconstriction is measured as the peak increase in intratracheal pressure occurring within 5 minutes after antigen challenge.
The sensitized guinea pigs are injected i.v. with 1 mg/kg propranolol, 5 mg/kg indomethacin and 2 mg/kg mepyramine given together in a volume of 1 ml/kg. Fifteen minutes later the animals are challenged with nebulized ovalbumin. Test compounds are administered orally 2 hours before challenge with ovalbumin. Suppression of anaphylactic bronchospasm is expressed as a percent inhibition of the peak increase in intratracheal pressure by comparison to a vehicle-treated control group.

Experiment [3] deals with reverse passive Arthus reaction in the pleural cavity of rats. As to the kind of experiment: Reverse passive Arthus reaction in the pleural cavity. The experiment is classed as in vivo. Particulars: Rattus norvegicus, po, method of Myers et al., read-out: ED₅₀ reverse passive Arthus reaction in the pleural cavity.
Experiment [4] has as its system spleen weight. Put plainly: Splenic atrophy test, decrease in spleen weight. The experiment is classed as in vivo. The conditions noted are these: BDF₁ mice. How it is done:
The immunosuppressive activity of the compounds may also be shown by a decrease in spleen weight after dosing BDF₁ mice orally with the drug for seven (7) consecutive days. The mice are sacrificed on the eighth day. The percent decrease in spleen weight is measured for each dosage level. In this procedure (Compound A) provided a 30% spleen weight decrease at a dosage level of 100 mg/kg.

Experiment [5] has as its system GRAFT VS. HOST REACTION (GVHR). As to the kind of experiment: Graft vs. host reaction (GVHR), spleen weight. In kind it is in vivo, C57 B1/6XA/J(B6AF1) male mice. The conditions noted are these: 10 mg/kg orally for 10 days; GVHR mice. The method, then:
To induce a GVHR, C57 B1/6XA/J(B6AF1) male mice were injected intravenously with parental (C57B1/6J) spleen and lymph node cells. The compound 1,2,3,4-tetrahydro-7-phenyl-oxepino[2,3-c][1,8]-naphthyridin-6(7H)-one (Compound A) was then administered orally for 10 days beginning on the day prior to the cell transfer. On the day following the last treatment, the animals were sacrificed, and their spleens were excised and weighed. The enlargement of the spleen of the host is a result of a GVHR. To some extent it is the host's own cells which infiltrate and enlarge the spleen although they do this because of the presence of graft cells reacting against the host. The amount of spleen enlargement, splenonmegaly, is taken as a measure of the severity of the GVHR.
In carrying out the GVHR the animal in the experimental group is injected with parental cells, cells of the same species but of different genotyne, which cause a weight increase of the spleen. […] The effectiveness of Compound A adminstered to the mice in the experimental group is measured by comparing the spleen weight of the untreated and treated GVH animal with that of the syngeneic control. Compound A reduced spleen weight by 61% as compared to the untreated animals at a dose of 10 mg/kg.

Take `O=c1c2c(c3cccnc3n1-c1ccccc1)CCCC2` [Compound 2, 7,8,9,10-Tetrahydro-5-phenyl-benzo[c][1,8]-naphthyridin-6-(5H)-one]: in experiment [1], the “Percent Inhibition vs. Control at 2 hrs.” value stood at 75% and the “Percent Inhibition vs. Control at 4 hrs.” value stood at 29%. In experiment [2], the ED50 was determined as 2 mg/kg.
Taken in the same sequence, the figures for `O=c1c2c(c3cccnc3n1-c1cccc(Cl)c1)CCCC2` [Compound 1, 5-(3-Chlorophenyl)-7,8,9,10-tetrahydro-benzo[c][1,8]-naphthyridin-6(5H)-one] were 64%, 30% and 2 mg/kg.
As to `O=c1c2c(c3cccnc3n1-c1cccc(Cl)c1)CCCCO2` [Compound 3, 7-(3-Chlorophenyl)-1,2,3,4-tetrahydro-oxepino[2,3-c][1,8]-naphthyridin-6(7H)-one], in experiment [2], the ED50 amounted to 5 mg/kg.
Consider `O=c1c2c(c3cccnc3n1-c1ccccc1)CCCCO2` [Compound 4, 1,2,3,4-tetrahydro-7-phenyl-oxepino[2,3-c][1,8]-naphthyridin-6(7H)-one], for which the “Percent Inhibition vs. Control at 2 hrs.” value in experiment [1] was determined as 74%. For the same molecule, the “Percent Inhibition vs. Control at 4 hrs.” value in experiment [1] is recorded as 25%. Moreover, the ED50 is around 4.5 mg/kg in experiment [3] and 1 mg/kg in experiment [2]. Further, the spleen weight decrease in experiment [4] (100 mg/kg orally for seven consecutive days) is on record as 30%. The ED30 in experiment [4] (Mus musculus, oral, seven consecutive days, read-out: ED₃₀ in the splenic atrophy test) is around 100 mg/kg; in experiment [2] (sensitized guinea pigs having antigen-induced bronchoconstriction, read-out: ED₃₀ inhibition of anaphylactic bronchospasm), around 0.5 mg/kg. The “reduced spleen weight as compared to the untreated animals” value in experiment [5] was determined as 61%.
